The values that follow are results of earlier work, collected in patent US6419963B1, “Composition and method for the treatment of diaper rash using natural products” (priority 2001, dated 2002).

In one data set the test system is ethanol-induced ulcers. The following applies: rats.

For the molecule `[O]=[Zn]` [Zinc oxide], the solubility in water entry was “almost totally insoluble”. As to Zinc glycerolate, the solubility in water result is “insoluble”.

With `CN/C(=N/CCSCc1nc[nH]c1C)NC#N` [cimetidine], the ethanol-induced ulcers entry in the data set on ethanol-induced ulcers was “not affected”.
